Measured values published in US12465630B2, “Small peptide compositions and uses thereof” (University of Pittsburgh—Of the Commonwealth System of …, priority 2018, dated 2025).

Columns and labels:
[1] = tested on: co-cultures of cardiomyocytes and cardiac fibroblasts; test: Motility (scratch) assay, co-cultures; type: cell-based, mouse; details: co-culture 2:1 cardiomyocytes to fibroblasts; FIG. 1C; listed as IP-10 Peptide
Protocol: (§1) Primary cardiac fibroblasts and cardiomyocytes were isolated from both wild-type and CXCR3−/− neonatal mouse pups. After washing in PBS, hearts were stirred for 5 minutes in 0.5% trypsin at 37° C. to dissociate cells into solution. The suspended cells were then transferred to DMEM containing 20% fetal bovine serum (FBS) on ice to inactivate trypsin activity, and dissociation was repeated twice more with fresh trypsin solution. Cells were then washed and plated into 6-well plates at 1.25×10^6 cells/well, suspended in cardiac cell media (DMEM containing 7.5% dialyzed FBS and 1% antibiotic/antimitotic solution). After three hours, adhered fibroblasts were separated from the unattached cardiomyocytes through resuspension of the cells, and cardiomyocytes were plated separately at a density of 5×10^5 cells/ml.
To determine the effect of IP-10p on TGFβ1-induced cell migration, motility assays were performed on cardiac fibroblasts, cardiomyocytes, and co-cultures (2:1 ratio of cardiomyocytes to fibroblasts). Cells were plated at 2.5×10^5 cells/well in a 12-well uncoated plate in depleted media (DMEM containing 0.5% FBS) 24 hours before beginning the experiment. […] Images were taken immediately after scratching and 24 hours later, and Adobe Photoshop was used to quantify wound motility as distance between wound edges relative to the initial scratch width.

CXCR3 = target: T1, CXCR3 (Homo sapiens, UniProt P49682); details: cited from earlier work
T1 sequence (P49682 1-415 isoform P49682-2): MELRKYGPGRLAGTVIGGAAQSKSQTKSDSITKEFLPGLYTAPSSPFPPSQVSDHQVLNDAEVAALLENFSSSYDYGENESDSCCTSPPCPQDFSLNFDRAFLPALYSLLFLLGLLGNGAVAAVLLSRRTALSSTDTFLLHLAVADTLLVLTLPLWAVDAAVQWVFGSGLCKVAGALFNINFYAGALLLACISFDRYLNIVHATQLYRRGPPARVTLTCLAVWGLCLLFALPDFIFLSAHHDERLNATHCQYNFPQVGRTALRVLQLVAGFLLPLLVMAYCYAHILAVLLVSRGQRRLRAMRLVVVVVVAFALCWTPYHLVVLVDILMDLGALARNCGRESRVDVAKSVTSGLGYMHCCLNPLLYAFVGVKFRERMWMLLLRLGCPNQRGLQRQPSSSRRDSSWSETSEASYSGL

[2] = tested on: CXCR3−/− co-cultures of cardiac fibroblasts and cardiomyocytes; test: Myofibroblast differentiation and ECM in CXCR3−/− co-cultures; type: cell-based, mouse; details: CXCR3−/− cells, TGFβ1
Protocol: as §1
(§2) Fibroblast activation to myofibroblasts is marked by αSMA expression within the cytoskeleton and serves as a marker to induce fibrosis. Cardiac fibroblasts were plated at 2,000 cells/well in an 8-well chamber slide and allowed to adhere overnight. After 24 hours, cells were washed and treated with: TGFβ1 alone (10 ng/ml), CXCL10 alone (10 μM), IP-10p alone (10 μM), TGFβ1+CXCL10, TGFβ1+IP-10p, or left untreated. After 24 hours, cells were fixed in ice cold methanol for 10 minutes and stained for αSMA (1:200, Abcam ab5694, Cambridge, UK) at 4° C. overnight, followed by a goat-anti-rabbit Alexa Fluor 594-conjugated secondary antibody (Abcam ab150080). After counterstaining with DAPI, cells were imaged, and fibroblast activation was measured using corrected total cell fluorescence (CTCF). These measurements were also performed in co-cultures of cardiomyocytes and cardiac fibroblasts (2:1 ratio)
Cardiac fibrosis is marked by overproduction of ECM proteins following injury. […] Expression of these molecules is expressed at CTCF and was quantified using MetaMorph® (Molecular Devices, Sunnyvale, CA).
In addition to cell motility, myofibroblast differentiation in CXCR3−/− cells in response to IP-10p was assessed. […]

cardiac fibroblasts [3] = test: Fibroblast activation assay (αSMA), cardiac fibroblasts; type: cell-based, mouse
Protocol: as §1, §2

[4] = tested on: co-cultures of cardiomyocytes and cardiac fibroblasts; test: Fibrotic extracellular matrix (ECM) secretion, co-cultures; type: cell-based, mouse; details: 48 h
Protocol: as §1
Cardiac fibrosis is marked by overproduction of ECM proteins following injury. To observe the effect of IP-10p on secretion of these molecules, co-cultures of cardiomyocytes and cardiac fibroblasts were used to account for […] signaling taking place between the two dominant cell types in the heart. Fibroblasts and myocytes were plated at a 2:1 ratio using the same culture conditions and treatment groups described above for fibroblast activation. Following a 48-hour incubation with their respective treatments, cells were fixed, permeabilized and stained. Antibodies for collagen α1 type 1 (1:250, Santa Cruz Biotechnology SC8784, Dallas, TX), fibronectin (1:250, Abcam ab2413), and tenascin C (1:200, Abcam ab6346), followed by their appropriate secondary antibodies (Abcam ab150132, ab150077, and 150153, respectively), were used to determine fibrotic ECM secretion from the co-cultures. Expression of these molecules is expressed at CTCF and was quantified using MetaMorph® (Molecular Devices, Sunnyvale, CA).

cardiac fibroblasts [5] = test: Motility (scratch) assay, cardiac fibroblasts; type: cell-based, mouse
Protocol: as §1
(§3) To determine the effect of IP-10p on TGFβ1-induced cell migration, motility assays were performed on cardiac fibroblasts, cardiomyocytes, and co-cultures (2:1 ratio of cardiomyocytes to fibroblasts). Cells were plated at 2.5×10^5 cells/well in a 12-well uncoated plate in depleted media (DMEM containing 0.5% FBS) 24 hours before beginning the experiment. A pipette tip was used to create a scratch in the monolayer and the plate was washed twice with PBS to remove scraped cells. Cells were then treated with TGFβ1 (R&D Systems, Minneapolis, MN) alone (10 ng/mL) to stimulate fibrosis, CXCL10 alone (10 μM), IP-10p alone (10 μM), TGFβ1+CXCL10, TGFβ1+IP-10p, or left untreated. Images were taken immediately after scratching and 24 hours later, and Adobe Photoshop was used to quantify wound motility as distance between wound edges relative to the initial scratch width.

cardiomyocytes = test: Motility (scratch) assay, cardiomyocytes; type: cell-based, mouse; details: TGFβ1 10 ng/mL + agent 10 μM, 24 h, FIG. 1A
Protocol: as §1, §3

[6] = agent alone vs unstimulated cultures

Sequence: PESKAIKNLLKAVSKEMSKRSP [IP-10p, 22-amino acid CXCL10 peptide spanning the C-terminal residues (77-98) of IP-10, the alpha-helical region]
- cellular migration in TGF-β induced co-cultures [1]: inhibits cellular migration
- activation of the CXCR3B isoform (CXCR3; PCT Publication Nos. WO 2013/032853 and WO 2015/112505): activates the CXCR3B isoform
- competition for binding and activation of CXCR3 (CXCR3; compared with whole CXCL10): competes for binding and activation of CXCR3 in an equimolar manner to whole CXCL10
- expression of αSMA in CXCR3−/− co-cultures [2]: inhibiting expression
- upregulation of collagen I in CXCR3−/− co-cultures [2]: inhibited upregulation
- upregulation of fibronectin in CXCR3−/− co-cultures [2]: inhibited upregulation
- reduction of activation of fibroblasts (αSMA) compared to the untreated control (cardiac fibroblasts [3]; IP-10p alone 10 μM, 24 h): 33%
- αSMA expression in the presence of TGFβ1 (cardiac fibroblasts [3]; TGFβ1 10 ng/mL + IP-10p 10 μM vs TGFβ1 alone): reduced αSMA expression
- collagen expression in the presence of TGFβ1 ([4]; TGFβ1 10 ng/mL + agent 10 μM): reduced expression of both these proteins to baseline levels
- fibronectin expression in the presence of TGFβ1 ([4]; TGFβ1 10 ng/mL + agent 10 μM): reduced expression of both these proteins to baseline levels
- collagen secretion, agent alone [4, 6]: reduced collagen and fibronectin secretion
- fibronectin secretion, agent alone [4, 6]: reduced collagen and fibronectin secretion
- motility of cardiac fibroblasts, agent alone (cardiac fibroblasts [5]; 10 μM alone, 24 h, compared to control): not altered
- migration following TGF-β induction in cardiac fibroblasts (cardiac fibroblasts [5]; FIG. 1B): inhibit migration
- reduction of motility of TGFβ1-treated fibroblasts (cardiac fibroblasts [5]; TGFβ1 10 ng/mL + agent 10 μM, 24 h): over 40%
- cardiomyocyte motility in the presence of TGFβ1 (cardiomyocytes): completely inhibited
- cardiomyocyte motility in the presence of TGFβ1 (cardiomyocytes; listed as IP-10 Peptide): inhibit migration
